Experiments:
Format in all cases: cell-based
RS4;11-BCL-2 D103E cells = test: Cell proliferation assay (MTS), RS4;11-BCL-2 D103E engineered cells; conditions: Homo sapiens, 72 h, read-out: RS4, 11 BCL2-D103E IC50
From the text: MTS testing kit was purchased from Promega (Madison, WI, USA). The RPMI-1640, Fetal bovine serum and Penicillin-Streptomycin were purchased from BI (Biological Industries, Beit Haemek, Israel). Puromycin was purchased from Beyotime (shanghai, China). Dimethyl sulfoxide (DMSO) was purchased from Sigma (St. Louis., MO, USA). RS4;11-BCL-2 G101V (Cobioer Lot. #: CBD2021063013P4), RS4;11-BCL-2 D103E (Cobioer Lot. #: CBD2021063013P4), RS4;11-BCL-2 D103Y (Cobioer Lot. #: CBD2022012101P4) and RS4;11-BCL-2 F104L (Cobioer Lot. #: CBD2021063014P4) cells were cultured in RPMI1640 supplemented with 1 ug/mL puromycin, 100 U/mL Penicillin-Streptomycin and 10% FBS.
To investigate whether a compound is able to inhibit the activity of BCL-2 mutation in cells, a mechanism-based assay using engineered cell lines stably overexpressing BCL-2 mutation (RS4;11-BCL-2 G101V, RS4;11-BCL-2 D103E, RS4;11-BCL-2 D103Y, and RS4;11-BCL-2 F104L) was developed. In this assay, the inhibition of BCL-2 mutation was reflected by the inhibition of cell proliferation of engineered RS4;11 cells. Cells were plated into 96-well plates at optimized cell density (RS4;11-BCL-2 G101V: 5000 cells/well; RS4;11-BCL-2 D103E: 7500 cells/well; RS4;11-BCL-2 D103Y: 7500 cells/well; RS4;11-BCL-2 F104L: 5000 cells/well). Plates were incubated at 37° C., with 5% CO2 for 4 h (RS4;11-BCL-2 G101V, RS4;11-BCL-2 F104L) and 24 h (RS4;11-BCL-2 D103E, RS4;11-BCL-2 D103Y), respectively. Compounds were serially diluted and added to the plates with the final concentrations of 10000, 3333.3, 1111.1, 370.4, 123.5, 41.2, 13.7, 4.6 and 1.5 nM. Plates were incubated at 37° C., with 5% CO2 for 120 h (RS4; 11-BCL-2 G101V, RS4; 11-BCL-2 F104L) and 72 h (RS4;11-BCL-2 D103E, RS4;11-BCL-2 D103Y), respectively. 20 μl MTS was added into each well and the plates were incubated at 37° C., with 5% CO2 exactly for 2 h. The absorbance was measured by a microplate reader at 490 nm. IC50 values were calculated using GraphPad Prism 8.0 software.

RS4;11-BCL-2 G101V cells = test: Cell proliferation assay (MTS), RS4;11-BCL-2 G101V engineered cells; conditions: Homo sapiens, 120 h, read-out: RS4, 11 BCL2-G101V IC50
Procedure, shortened: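 Proliferation IC50 in RS4;11 lines engineered with BCL-2 mutations, measured by MTS at 490 nm after 72 h (D103E, D103Y) or 120 h (G101V, F104L) compound treatment at 37 °C.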

Toledo cells = test: Cell proliferation assay (MTS), Toledo cells; conditions: Homo sapiens, 72 h
Procedure, shortened: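 Toledo cells (RPMI-1640, 10% FBS) seeded at 30000 cells/well, rested 4 h, then exposed 72 h at 37 °C, 5% CO2 to compound at nine final concentrations, 1.5–10000 nM. Viability by MTS (2 h), absorbance at 490 nm. IC50 from the concentration-response.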

Row | Compound | IC50 (RS4;11-BCL-2 D103E cells) | IC50 (RS4;11-BCL-2 G101V cells) | IC50 (Toledo cells)
1 | COc1cc(CN2CCN(C3CC4(CCN(c5ccc(C(=O)NS(=O)(=O)c6cnc(NC[C@H]7CC[C@](C)(O)CC7)c([N+](=O)[O-])c6)c(Oc6cnc7[nH]cc(F)c7c6)c5)CC4)C3)[C@H](c3ccccc3C(C)C)C2)ccc1C1CC1 [Example 73, 4-(2-((R)-4-(4-cyclopropyl-3-methoxybenzyl)-2-(2-isopropylphenyl)piperazin-1-yl)-7-azaspiro[3.5]nonan-7-yl)-2-((3-fluoro-1H-pyrrolo[2,3-b]pyridin-5-yl)oxy)-N-((6-((((1r,4r)-4-hydroxy-4-methylcyclohexyl)methyl)amino)-5-nitropyridin-3-yl)sulfonyl)benzamide] | 3 nM | 1 nM | 1 nM
2 | COc1c(F)cc(CN2CCN(C3CC4(CCN(c5ccc(C(=O)NS(=O)(=O)c6cnc(NC[C@H]7CC[C@](C)(O)CC7)c([N+](=O)[O-])c6)c(Oc6cnc7[nH]cc(F)c7c6)c5)CC4)C3)[C@H](c3ccccc3C(C)C)C2)cc1F [Example 248, 4-(2-((R)-4-(3,5-difluoro-4-methoxybenzyl)-2-(2-isopropylphenyl)piperazin-1-yl)-7-azaspiro[3.5]nonan-7-yl)-2-((3-fluoro-1H-pyrrolo[2,3-b]pyridin-5-yl)oxy)-N-((6-((((1r,4r)-4-hydroxy-4-methylcyclohexyl)methyl)amino)-5-nitropyridin-3-yl)sulfonyl)benzamide] | 3 nM | 1 nM | 1 nM
3 | COc1ccc(CN2CCN(C3CC4(CCN(c5ccc(C(=O)NS(=O)(=O)c6cnc(NC[C@H]7CC[C@](C)(O)CC7)c([N+](=O)[O-])c6)c(Oc6cc7c(F)c[nH]c7nc6OC)c5)CC4)C3)[C@H](c3ccccc3C(C)C)C2)nc1 [Example 122, 2-((3-fluoro-6-methoxy-1H-pyrrolo[2,3-b]pyridin-5-yl)oxy)-N-((6-((((1r,4r)-4-hydroxy-4-methylcyclohexyl)methyl)amino)-5-nitropyridin-3-yl)sulfonyl)-4-(2-((R)-2-(2-isopropylphenyl)-4-((5-methoxypyridin-2-yl)methyl)piperazin-1-yl)-7-azaspiro[3.5]nonan-7-yl)benzamide] | 3 nM | 1 nM | 1 nM
4 | CC(C)c1ccccc1[C@@H]1CN(Cc2cnn(C3CC3)c2)CCN1C1CC2(CCN(c3ccc(C(=O)NS(=O)(=O)c4cnc(NC[C@H]5CC[C@](C)(O)CC5)c([N+](=O)[O-])c4)c(Oc4cnc5[nH]cc(F)c5c4)c3)CC2)C1 [Example 247, 4-(2-((R)-4-((1-cyclopropyl-1H-pyrazol-4-yl)methyl)-2-(2-isopropylphenyl)piperazin-1-yl)-7-azaspiro[3.5]nonan-7-yl)-2-((3-fluoro-1H-pyrrolo[2,3-b]pyridin-5-yl)oxy)-N-((6-((((1r,4r)-4-hydroxy-4-methylcyclohexyl)methyl)amino)-5-nitropyridin-3-yl)sulfonyl)benzamide] | 1 nM | 1 nM | 1 nM
5 | COc1nc2[nH]cc(F)c2cc1Oc1cc(N2CCC3(CC2)CC(N2CCN(Cc4cnn(C5CC5)c4)C[C@H]2c2ccccc2C(C)C)C3)ccc1C(=O)NS(=O)(=O)c1cnc(NC[C@H]2CC[C@](C)(O)CC2)c([N+](=O)[O-])c1 [Example 133, 4-(2-((R)-4-((1-cyclopropyl-1H-pyrazol-4-yl)methyl)-2-(2-isopropylphenyl)piperazin-1-yl)-7-azaspiro[3.5]nonan-7-yl)-2-((3-fluoro-6-methoxy-1H-pyrrolo[2,3-b]pyridin-5-yl)oxy)-N-((6-((((1r,4r)-4-hydroxy-4-methylcyclohexyl)methyl)amino)-5-nitropyridin-3-yl)sulfonyl)benzamide] | 2 nM | 1 nM | 1 nM

Second part, led by results:

Row | IC50 (RS4;11-BCL-2 D103E cells) | IC50 (RS4;11-BCL-2 G101V cells) | Compound | IC50 (Toledo cells)
6 | 1 nM | 1 nM | COc1ccc(CN2CCN(C3CC4(CCN(c5ccc(C(=O)NS(=O)(=O)c6cnc(NC[C@H]7CC[C@](C)(O)CC7)c([N+](=O)[O-])c6)c(Oc6cnc7[nH]cc(F)c7c6)c5)CC4)C3)[C@H](c3ccccc3C(C)C)C2)cn1 [Example 252, 2-((3-fluoro-1H-pyrrolo[2,3-b]pyridin-5-yl)oxy)-N-((6-((((1r,4r)-4-hydroxy-4-methylcyclohexyl)methyl)amino)-5-nitropyridin-3-yl)sulfonyl)-4-(2-((R)-2-(2-isopropylphenyl)-4-((6-methoxypyridin-3-yl)methyl)piperazin-1-yl)-7-azaspiro[3.5]nonan-7-yl)benzamide] | 1 nM
7 | 1 nM | 1 nM | COc1cc(CN2CCN(C3CC4(CCN(c5ccc(C(=O)NS(=O)(=O)c6cnc(NC[C@H]7CC[C@](C)(O)CC7)c([N+](=O)[O-])c6)c(Oc6cnc7[nH]cc(F)c7c6)c5)CC4)C3)[C@H](c3ccccc3C(C)C)C2)ccn1 [Example 243, 2-((3-fluoro-1H-pyrrolo[2,3-b]pyridin-5-yl)oxy)-N-((6-((((1r,4r)-4-hydroxy-4-methylcyclohexyl)methyl)amino)-5-nitropyridin-3-yl)sulfonyl)-4-(2-((R)-2-(2-isopropylphenyl)-4-((2-methoxypyridin-4-yl)methyl)piperazin-1-yl)-7-azaspiro[3.5]nonan-7-yl)benzamide] | 1 nM
8 | 1 nM | 1 nM | CCOc1nc2[nH]cc(F)c2cc1Oc1cc(N2CCC3(CC2)CC(N2CCN(Cc4ccc(OC)nc4)C[C@H]2c2ccccc2C(C)C)C3)ccc1C(=O)NS(=O)(=O)c1cnc(NC[C@H]2CC[C@](C)(O)CC2)c([N+](=O)[O-])c1 [Example 120, 2-((6-ethoxy-3-fluoro-1H-pyrrolo[2,3-b]pyridin-5-yl)oxy)-N-((6-((((1r,4r)-4-hydroxy-4-methylcyclohexyl)methyl)amino)-5-nitropyridin-3-yl)sulfonyl)-4-(2-((R)-2-(2-isopropylphenyl)-4-((6-methoxypyridin-3-yl)methyl)piperazin-1-yl)-7-azaspiro[3.5]nonan-7-yl)benzamide] | 1 nM
9 | 1 nM | 1 nM | COc1ccc(CN2CCN(C3CC4(CCN(c5ccc(C(=O)NS(=O)(=O)c6cnc(NC[C@H]7CC[C@](C)(O)CC7)c([N+](=O)[O-])c6)c(Oc6cnc7[nH]cc(F)c7c6)c5)CC4)C3)[C@H](c3ccccc3C(C)C)C2)c2nc(C)oc12 [Example 244, 2-((3-fluoro-1H-pyrrolo[2,3-b]pyridin-5-yl)oxy)-N-((6-((((1r,4r)-4-hydroxy-4-methylcyclohexyl)methyl)amino)-5-nitropyridin-3-yl)sulfonyl)-4-(2-((R)-2-(2-isopropylphenyl)-4-((7-methoxy-2-methylbenzo[d]oxazol-4-yl)methyl)piperazin-1-yl)-7-azaspiro[3.5]nonan-7-yl)benzamide] | 1 nM
10 | 1 nM | 1 nM | CCOc1nc2[nH]cc(F)c2cc1Oc1cc(N2CCC3(CC2)CC(N2CCN(CC)C[C@H]2c2ccccc2C(C)C)C3)ccc1C(=O)NS(=O)(=O)c1cnc(NC[C@H]2CC[C@](C)(O)CC2)c([N+](=O)[O-])c1 [Example 141, 2-((6-ethoxy-3-fluoro-1H-pyrrolo[2,3-b]pyridin-5-yl)oxy)-4-(2-((R)-4-ethyl-2-(2-isopropylphenyl)piperazin-1-yl)-7-azaspiro [3.5]nonan-7-yl)-N-((6-((((1r,4r)-4-hydroxy-4-methylcyclohexyl)methyl)amino)-5-nitropyridin-3-yl)sulfonyl)benzamide] | 1 nM

Source: US20250122191A1, “COMPOUNDS AS BCL-2 INHIBITORS” (Fochon Biosciences, Ltd, priority 2021, published 2025)
